Data taken from patent publication US10174016B2 (BAYER AKTIENGESELLSCHAFT, priority 2014, dated 2019).
Where two headings read alike, the source gives them in different places.

Key:
human P2X3 receptor = human P2X3 receptor (Homo sapiens (Human), UniProt P56373); assay: Intracellular calcium measurement (FLIPR, Fluo-4) of antagonist activity at human P2X3 receptors; format: cell-based; details: read-out: hP2X3 IC50
Experimental: (§1) Intracellular Calcium Measurement to Assess Antagonist Activity at Human P2X3 and Human P2X2/3 Receptors
(§2) A fluorescent imaging plate reader (FLEX/FLIPR station; Molecular Devices) was used to monitor intracellular calcium levels using the calcium-chelating dye Fluo-4 (Molecular Probes). […] Cells expressing purinergic receptors P2X3 (human) or P2X2/3 (human) were plated at a density of 15,000 cells/well in collagen-coated 384-well plates approximately 20 hours before beginning the assay. […] The test compound was added in a volume of 5 μl and allowed to incubate for 30 min at 37° C. The final assay DMSO concentration is 1%. The agonist, α,β-Me-ATP, was added in a volume of 20 μl at a concentration representing the EC80 value. The fluorescence was measured for an interval of 90 sec at 2 sec intervals and analyzed based on the increase in peak relative fluorescence units (RFU) compared to the basal fluorescence. Peak fluorescence was used to determine the response to agonist obtained at each concentration of test compound by the following equation: % Response=100*(RFU(test compound)−RFU(control)/RFU(DMSO)−RFU(control))
(§3) The Examples were tested in triplicates per plate and mean values were plotted in Excel XLFit to determine IC50 values at the human P2X3 and human P2X2/3 receptors, percentage of maximal inhibition and the Hill coefficients.

human P2X2/3 receptor = human P2X2/3 receptor (Homo sapiens (Human), UniProt P56373+Q9UBL9); assay: Intracellular calcium measurement (FLIPR, Fluo-4) of antagonist activity at human P2X2/3 receptors; format: cell-based; details: human P2X2/3, FLIPR calcium assay, agonist α,β-Me-ATP; read-out: hP2X2/3 IC50
human P2X2/3 receptor, sequence (P56373 whole entry): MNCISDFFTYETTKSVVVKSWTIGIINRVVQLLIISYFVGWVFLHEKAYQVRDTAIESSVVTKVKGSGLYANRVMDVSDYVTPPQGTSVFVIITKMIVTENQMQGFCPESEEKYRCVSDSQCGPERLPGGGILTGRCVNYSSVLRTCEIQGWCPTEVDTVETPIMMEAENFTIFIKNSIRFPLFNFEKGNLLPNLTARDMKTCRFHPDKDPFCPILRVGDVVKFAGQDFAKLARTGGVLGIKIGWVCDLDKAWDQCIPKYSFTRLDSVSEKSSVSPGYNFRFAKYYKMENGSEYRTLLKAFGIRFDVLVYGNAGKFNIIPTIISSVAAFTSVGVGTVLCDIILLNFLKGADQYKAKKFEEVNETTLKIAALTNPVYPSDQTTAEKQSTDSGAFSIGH
human P2X2/3 receptor, sequence (Q9UBL9 whole entry): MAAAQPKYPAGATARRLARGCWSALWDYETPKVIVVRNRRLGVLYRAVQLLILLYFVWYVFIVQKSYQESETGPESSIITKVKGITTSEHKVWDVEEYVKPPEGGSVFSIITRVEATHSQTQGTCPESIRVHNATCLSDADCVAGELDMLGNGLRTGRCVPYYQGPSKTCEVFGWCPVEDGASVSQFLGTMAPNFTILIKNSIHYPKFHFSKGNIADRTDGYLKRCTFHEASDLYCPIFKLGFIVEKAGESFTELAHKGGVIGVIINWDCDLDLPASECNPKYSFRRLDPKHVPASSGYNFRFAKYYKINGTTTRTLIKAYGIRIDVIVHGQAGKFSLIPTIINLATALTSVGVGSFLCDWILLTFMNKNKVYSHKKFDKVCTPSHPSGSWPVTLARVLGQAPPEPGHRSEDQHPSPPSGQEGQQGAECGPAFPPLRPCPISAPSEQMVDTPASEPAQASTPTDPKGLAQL
Experimental: as §1, §2, §3

[1] = human P2X3, FLIPR calcium assay, agonist α,β-Me-ATP

human P2X3 receptor, sequence (P56373 whole entry): as the sequence (P56373 whole entry) above

Row | IC50 (human P2X3 receptor; [1]) [nM] | IC50 (human P2X2/3 receptor) [nM] | Compound | IC50 (human P2X3 receptor) [nM]
1 | 2 | 199 | Cc1cnc(-c2cc(O[C@H]3CC[C@H]4[C@H]3OCCN4C)cc(C(=O)N[C@H](C)c3cnc(C(F)(F)F)nc3)c2)s1 [Example 219, 3-{[(4aS,7S, 7aR)-4-methylocta-hydro-cyclopenta[b] [1,4]oxazin-7-yl]oxy}-5-(5-methyl-1,3-thiazol-2-yl)-N-{(1R)-1-[2-(trifluoromethyl)pyrimidin-5-yl]ethyl} benzamide] | –
2 | 16 | 1140 | Cc1cnc(-c2cc(O[C@H]3CCN(C(C)C)C3)cc(C(=O)N[C@H](C)c3cnc(C(F)(F)F)nc3)c2)s1 [Example 225, 3-(5-methyl-1,3-thiazol-2-yl)-5-{[(3S)-1-(propan-2-yl)pyrrolidin-3-yl]oxy}-N-{(1R)-1-[2-(trifluoromethyl)pyrimidin-5-yl]ethyl}benzamide] | –
3 | 13 | 161 | CCOC(=O)N1CCC(Oc2cc(C(=O)N[C@H](C)c3cnc(C(F)(F)F)nc3)cc(-c3ncc(C)s3)c2)CC1 [Example 227, Ethyl 4-[3-(5-methyl-1,3-thiazol-2-yl)-5-({(1R)-1-[2-(trifluoromethyl)pyrimidin-5-yl]ethyl}carbamoyl)phenoxy]piperidine-1-carboxylate] | –
4 | 5 | 54 | CCOC(=O)N1CC[C@H](Oc2cc(C(=O)N[C@H](C)c3cnc(C(F)(F)F)nc3)cc(-c3ncc(C)s3)c2)C1 [Example 228, Ethyl (3S)-3-[3-(5-methyl-1,3-thiazol-2-yl)-5-({(1R)-1-[2-(trifluoromethyl)pyrimidin-5-yl]ethyl}carbamoyl)phenoxy]pyrrolidine-1-carboxylate] | –
5 | 101 | 1060 | CC(C)c1cnc(-c2cc(O[C@@H]3CCOC3)cc(C(=O)N[C@H](C)c3ccc(C(F)(F)F)nn3)c2)s1 [Example 294, 3-[5-(propan-2-yl)-1,3-thiazol-2-yl]-5-[(3R)-tetrahydrofuran-3-yloxy]-N-{(1R)-1-[6-(trifluoromethyl)pyridazin-3-yl]ethyl}benzamide] | –
6 | 84 | 1090 | Cc1cnc(-c2cc(OC[C@@H]3CN(C)CCO3)cc(C(=O)NCc3cnc(C(F)(F)F)nc3)c2)s1 [Example 368, 3-{[(2S)-4-methylmorpholin-2-yl]methoxy}-5-(5-methyl-1,3-thiazol-2-yl)-N-{[2-(trifluoromethyl)pyrimidin-5-yl]methyl}benzamide] | –
7 | 134 | 730 | Cc1ccc(Oc2cc(C(=O)N[C@H](C)c3cnc(C)cn3)cc(-c3ncc(C)s3)c2)cn1 [Example 131, N-[(1R)-1-(5-methylpyrazin-2-yl)ethyl]-3-[(6-methylpyridin-3-yl)oxy]-5-(5-methyl-1,3-thiazol-2-yl)benzamide] | –
8 | 38 | 397 | C[C@@H](NC(=O)c1cc(OC2CCOCC2)cc(-c2ncc(C3CCC3)s2)c1)c1cnc(C(F)(F)F)nc1 [Example 238, 3-(5-cyclobutyl-1,3-thiazol-2-yl)-5-(tetrahydro-2H-pyran-4-yloxy)-N-{(1R)-1-[2-(trifluoromethyl)pyrimidin-5-yl]ethyl}benzamide] | –
9 | 24 | – | C#CCOc1cc(C(=O)NCc2ncc(Cl)cc2F)cc(-c2ncc(C)s2)c1 [Example 32, N-[(5-Chloro-3-fluoropyridin-2-yl)methyl]-3-(5-methyl-1,3-thiazol-2-yl)-5-(prop-2-yn-1-yloxy)benzamide] | –
10 | 318 | 2740 | CC[C@@H](NC(=O)c1cc(OC2COC2)cc(-c2ncc(C)s2)c1)c1cnc(C(F)(F)F)nc1 [Example 53, 3-(5-methyl-1,3-thiazol-2-yl)-5-(oxetan-3-yloxy)-N-{(1R)-1-[2-(trifluoromethyl)pyrimidin-5-yl]propyl}benzamide] | –
11 | 132 | 1520 | Cc1cnc(-c2cc(OC3COC3)cc(C(=O)NC(C)c3ncc(F)cc3Cl)c2)s1 (stereo not drawn) [Example 49, N-[1-(3-Chloro-5-fluoropyridin-2-yl)ethyl]-3-(5-methyl-1,3-thiazol-2-yl)-5-(oxetan-3-yloxy)benzamide] | –
12 | 10 | 239 | Cc1cnc(-c2cc(OCC3(C)COC3)cc(C(=O)N[C@H](C)c3cnc(C(F)(F)F)nc3)c2)s1 [Example 327, 3-[(3-methyloxetan-3-yl)methoxy]-5-(5-methyl-1,3-thiazol-2-yl)-N-{(1R)-1-[2-(trifluoromethyl)pyrimidin-5-yl]ethyl}benzamide] | –
13 | 72 | 893 | Cc1cnc(-c2cc(OC3COC3)cc(C(=O)NCc3cnc(C(F)(F)F)nc3)c2)s1 [Example 167, 3-(5-methyl-1,3-thiazol-2-yl)-5-(oxetan-3-yloxy)-N-{[2-(trifluoromethyl)pyrimidin-5-yl]methyl}benzamide] | –
14 | – | 559 | Cc1cnc(-c2cc(OC3CCNCC3)cc(C(=O)N[C@H](C)c3cnc(C(F)(F)F)nc3)c2)s1 [Example 138, 3-(5-Methyl-1,3-thiazol-2-yl)-5-(piperidin-4-yloxy)-N-{(1R)-1-[2-(trifluoromethyl)pyrimidin-5-yl]ethyl}benzamide] | –
15 | – | 130 | Cc1cnc(-c2cc(OC3CCOCC3)cc(C(=O)N[C@H](C)c3cnc(C(F)F)nc3)c2)s1 [Example 154, N-{(1R)-1-[2-(difluoromethyl)pyrimidin-5-yl]ethyl}-3-(5-methyl-1,3-thiazol-2-yl)-5-(tetrahydro-2H-pyran-4-yloxy)benzamide] | –
16 | – | 163 | Cc1cnc(-c2cc(OC3(C)COC3)cc(C(=O)N[C@H](C)c3cnc(C(F)(F)F)nc3)c2)s1 [Example 156, 3-[(3-methyloxetan-3-yl)oxy]-5-(5-methyl-1,3-thiazol-2-yl)-N-{(1R)-1-[2-(trifluoromethyl)pyrimidin-5-yl]ethyl}benzamide] | –
17 | – | 1180 | C#CCOc1cc(C(=O)N[C@H](C)c2ccc(C)nn2)cc(-c2ncc(C)s2)c1 [Example 37, N-[(1R)-1-(6-Methylpyridazin-3-yl)ethyl]-3-(5-methyl-1,3-thiazol-2-yl)-5-(prop-2-yn-1-yloxy)benzamide] | –
18 | – | 887 | Cc1cnc(-c2cc(OC[C@H]3COCCO3)cc(C(=O)N[C@H](C)c3ccc(C(F)(F)F)nc3)c2)s1 [Example 177, 3-[(2R)-1,4-dioxan-2-ylmethoxy]-5-(5-methyl-1,3-thiazol-2-yl)-N-{(1R)-1-[6-(trifluoromethyl)pyridin-3-yl]ethyl}benzamide] | –
19 | – | ≥ 10000 | Cc1ccc(CNC(=O)c2cc(OC[C@@H]3CCCO3)cc(-c3ncc(C)s3)c2)nn1 [Example 54, N-[(6-Methylpyridazin-3-yl)methyl]-3-(5-methyl-1,3-thiazol-2-yl)-5-[(2S)-tetrahydrofuran-2-ylmethoxy]benzamide] | –
20 | – | 39 | Cc1cc(Oc2cc(C(=O)N[C@H](C)c3ccc(C(F)(F)F)nn3)cc(-c3ncc(C)s3)c2)ccn1 [Example 105, 3-[(2-Methylpyridin-4-yl)oxy]-5-(5-methyl-1,3-thiazol-2-yl)-N-{(1R)-1-[6-(trifluoromethyl)pyridazin-3-yl]ethyl}benzamide] | –
21 | – | 1230 | Cc1cnc(-c2cc(OCCn3cncn3)cc(C(=O)N[C@H](C)c3cnc(C(F)(F)F)nc3)c2)s1 [Example 159, 3-(5-methyl-1,3-thiazol-2-yl)-5-[2-(1H-1,2,4-triazol-1-yl)ethoxy]-N-{(1R)-1-[2-(trifluoromethyl)pyrimidin-5-yl]ethyl}benzamide] | –
22 | – | 199 | Cc1cnc(-c2cc(OC3CCOCC3)cc(C(=O)N[C@H](C)c3ccc(C(F)(F)F)nn3)c2)s1 [Example 89, 3-(5-Methyl-1,3-thiazol-2-yl)-5-(tetrahydro-2H-pyran-4-yloxy)-N-{(1R)-1-[6-(trifluoromethyl)pyridazin-3-yl]ethyl}benzamide] | –
23 | 15 | – | Cc1cnc(-c2cc(OCC34CNC(CO3)C4)cc(C(=O)N[C@H](C)c3cnc(C(F)(F)F)nc3)c2)s1 (stereo partly drawn) [Example 407, 3-(5-Methyl-1,3-thiazol-2-yl)-5-[2-oxa-5-azabicyclo[2.2.1]hept-1-ylmethoxy]-N-{(1R)-1-[2-(trifluoromethyl)pyrimidin-5-yl]ethyl}benzamide] | –

Row | Compound | IC50 (human P2X3 receptor; [1]) [nM] | IC50 (human P2X2/3 receptor) [nM] | IC50 (human P2X3 receptor) [nM]
24 | Cc1cnc([C@@H](C)NC(=O)c2cc(Oc3nccs3)cc(-c3ncc(C)s3)c2)cn1 [Example 112, N-[(1R)-1-(5-Methylpyrazin-2-yl)ethyl]-3-(5-methyl-1,3-thiazol-2-yl)-5-(1,3-thiazol-2-yloxy)benzamide] | – | 772 | 61
25 | Cc1cnc(-c2cc(OC3CCN(CC(F)F)CC3)cc(C(=O)N[C@H](C)c3cnc(C(F)(F)F)nc3)c2)s1 [Example 304] | – | 27 | 7
26 | CC(C)c1cnc(-c2cc(OC[C@H]3CCCO3)cc(C(=O)N[C@H](C)c3cnc(C(F)(F)F)nc3)c2)s1 [Example 275, 3-[5-(propan-2-yl)-1,3-thiazol-2-yl]-5-[(2R)-tetrahydrofuran-2-ylmethoxy]-N-{(1R)-1-[2-(trifluoromethyl)pyrimidin-5-yl]ethyl}benzamide] | – | 191 | 21
27 | Cc1ccc([C@@H](C)NC(=O)c2cc(OC3COC3)cc(-c3ncc(C)s3)c2)cn1 [Example 51, N-[(1R)-1-(6-methylpyridin-3-yl)ethyl]-3-(5-methyl-1,3-thiazol-2-yl)-5-(oxetan-3-yloxy)benzamide] | – | 1390 | –
